Data from US12721870B2 (priority 2021, dated 2026).
Values joined by “and” are separate entries in the source; they are usually repeats but may differ in a detail not shown here. Identical values can stand only once.

Key:
[1] = tested on: cyclophosphamide (CPP)-induced animal model; test: Antibodies in blood of CPP-induced animal model (ELISA); type: in vivo; conditions: mice, 150 mg/kg CPP only, serum ELISA
Method: (§1) The blood of a CPP-induced animal model was reacted at room temperature for two hours and then centrifuged at 4000 rpm for 10 minutes to isolate serum. The secretion amounts of IgG, IgA, and IgM were measured from the isolated serum using an ELISA kit (Thermo, US).

[2] = tested on: cyclophosphamide (CPP)-induced animal model; test: Cytokines in blood of CPP-induced animal model (ELISA); type: in vivo; conditions: mice, 150 mg/kg CPP only, serum ELISA; tendency
Method: as §1
In addition, enzyme-linked immunosorbent assay (ELISA) for IL-6, IL-2, IL-10, and IL-4 was performed using the serum.

[3] = tested on: splenocytes; test: Cell viability of splenocytes from CPP-induced animal model (WST); type: in vivo; conditions: mice, 150 mg/kg CPP only, splenocytes incubated 48 hours
Method: To measure the cell viability of splenocytes, a collection of cells involved in various cellular immunity, splenocytes from each mouse were seeded in a 96-well plate at 1×10^4 cells/well and then incubated in a 37° C. CO2 incubator for 48 hours. Next, the splenocytes were treated with WST to measure cell viability.

[4] = tested on: Th1, Th2, Th17, and Treg cells; test: T cell subset marker mRNA in splenocytes of CPP-induced animal model (qPCR); type: in vivo; conditions: mice, 150 mg/kg CPP only
Method: In addition, RNA was isolated from the splenocytes at 2×10^6 cells/sample using a TRIZOL® reagent (Thermo, US), and cDNA was synthesized using ACCUPOWER® RT PreMix & Master Mix (Bioneer, KO). To confirm changes in differentiation of Th1, Th2, Th17, and Treg cells, T cell subsets, using the synthesized cDNA and ACCUPOWER® GreenStar™ qPCR PreMix (Bioneer, KO), expression levels of TBX21, GATA3, RORγt, IL-17A, Foxp3, and CTLA-4 mRNA in these cells were measured.

[5] = tested on: cyclophosphamide (CPP)-induced animal model; test: Thymus and spleen weight in CPP-induced animal model; type: in vivo; conditions: mice
Method: To confirm the immunity-enhancing efficacy of the V5 strain in a cyclophosphamide (CPP)-induced animal model, tests were performed for each concentration of the V5 strain. Cyclophosphamide (CPP) is an anticancer drug widely used for all types of cancers, sarcomas, leukemia, and malignant lymphoma, and is a non-specific immunosuppressant. […] When CPP suppresses immunity, the weight of the thymus, an immune tissue, and the number of thymocytes are reduced, and the spleen weight is increased as a result of a defense mechanism against immunosuppression.
To confirm the effect of the V5 strain on the weight of the thymus and spleen of a CPP-induced animal model, the weight of the thymus and spleen of the animal model was measured.

[6] = tested on: natural killer cells (NK cells); test: Cytotoxicity of NK cells from CPP-induced animal model (LDH, YAC-1 cells); conditions: mice, 150 mg/kg CPP only, YAC-1 cells: splenocytes 1:50, four hours
Method: The test was performed in the following four groups with seven mice per group: a normal control (NC), a group treated with 150 mg/kg of CPP, a group treated with 1×10^9 CFU/mouse (10^9 CFU) ATG-V5 (V5 strain), and a group treated with 1×10^10 CFU/mouse (V5 10^10 CFU) ATG-V5 (V5 strain).
To measure the cytotoxicity of natural killer cells (NK cells), the spleen was isolated from a CPP-induced animal model, and then the tissue was ground to obtain splenocytes. Next, the splenocytes were mixed with YAC-1 cells in a ratio of the YAC-1 cells: the splenocytes of 1:50 and then incubated in a CO2 incubator at 37° C. for four hours. The amount of LDH was measured using an LDH-cell cytotoxicity assay kit.

## O=P1(N(CCCl)CCCl)NCCCO1 (stereo not drawn) [CPP, cyclophosphamide]
[1]
  Secretion amount of IgA in the blood: reduced
  Secretion amount of IgG in the blood: reduced
  Secretion amount of IgM in the blood: failed to cause changes
[2]
  Cytokines in the blood (IL-6, IL-2, IL-10, IL-4): reduced
[3]
  Cell viability of splenocytes: 99.98%
[4]
  Overall number of T cell subsets (mRNA in splenocytes): suppressing
[5]; group treated with 150 mg/kg of CPP only (normal control 0.061 g), 150 mg/kg
  Thymus weight: 0.03 g and 0.031 g
[5]; group treated with 150 mg/kg of CPP only (normal control 0.105 g)
  Spleen weight: 0.170 g
[6]
  Cytotoxicity of NK cells: 144%
